Laboratory results as given in PubChem BioAssay (NCI).
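Test compounds were applied to cells in 96-well plates for 48 hours at 5 doses. Abbreviation: GI50, concentration required for 50% inhibition of growth. TGI: concentration producing complete growth inhibition.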

Assays:
Test in all cases: NCI anticancer screen, dose series, 48 h
OVCAR-3 ovarian = system: OVCAR-3 ovarian
LXFL 529 NSCLC = system: LXFL 529 NSCLC
U251 CNS = system: U251 CNS
SK-OV-3 ovarian = system: SK-OV-3 ovarian
DMS 273 small cell lung = system: DMS 273 small cell lung
SNB-19 CNS = system: SNB-19 CNS
CAKI-1 renal = system: CAKI-1 renal
ACHN renal = system: ACHN renal
A498 renal = system: A498 renal
MDA-MB-231 breast = system: MDA-MB-231 breast

Structure (SMILES)	TGI (OVCAR-3 ovarian)	TGI (LXFL 529 NSCLC)	TGI (U251 CNS)	TGI (SK-OV-3 ovarian)	TGI (DMS 273 small cell lung)	TGI (SNB-19 CNS)	TGI (CAKI-1 renal)	TGI (ACHN renal)	GI50 (A498 renal)	TGI (A498 renal)	GI50 (OVCAR-3 ovarian)	GI50 (MDA-MB-231 breast)	TGI (MDA-MB-231 breast)	GI50 (CAKI-1 renal)	GI50 (U251 CNS)	GI50 (ACHN renal)	GI50 (SK-OV-3 ovarian)	GI50 (SNB-19 CNS)	GI50 (LXFL 529 NSCLC)
COc1ccc(C(=O)C(C(=O)C(=O)NCCCNC(=O)C(=O)C(C(=O)c2ccc(OC)cc2)c2ccc(OC)cc2)c2ccc(OC)cc2)cc1 (stereo unspecified)	> 100 µM	> 100 µM	> 100 µM	> 100 µM	> 100 µM	> 100 µM													
CCN(CC)C(=S)SS(C)(=O)=O		30 µM	31.5 µM	> 100 µM	36 µM	58.4 µM	57.1 µM	31.8 µM											
Cc1ccc(S(=O)(=O)C2CC2(Cl)Cl)cc1 (stereo unspecified)	52.6 µM	34 µM	> 100 µM	> 100 µM	> 100 µM	> 100 µM	86.1 µM	70.8 µM											
Cc1cc(N2CCOCC2)nc(NCc2cc(Nc3ccnc4cc(Cl)ccc34)ccc2F)n1	3.16 µM		3.12 µM	3.48 µM		3.45 µM	3.14 µM	3.33 µM	0.894 µM	2.25 µM	1.72 µM	1.88 µM	3.63 µM	1.63 µM	1.63 µM	1.83 µM	1.92 µM	1.65 µM	
CC1=C[C@@H]2c3c(c(O)c(O)c4oc5cc(O)cc(O)c5c(=O)c34)[C@@H](c3cc(O)c(O)c4oc5cc(O)cc(O)c5c(=O)c34)[C@@H]2C(C)(C)C1	13.4 µM		13.9 µM	14.6 µM		13 µM	14 µM	15.7 µM	9.07 µM	21 µM	3.33 µM	4.19 µM	20.5 µM	3.93 µM	2.34 µM	4.25 µM	3.77 µM	2.76 µM	
Cc1[nH]c2cc([N+](=O)[O-])ccc2c1[N+](=O)[O-]	> 100 µM	48.3 µM	71.2 µM			56.5 µM	47.1 µM	50.3 µM		50.4 µM									
CC(=O)CC(=O)Nc1ccccc1C(F)(F)F		> 100 µM	> 100 µM	> 100 µM		> 100 µM	> 100 µM	> 100 µM		> 100 µM									
Cc1c(-c2ccccn2)ccc2ccccc12	> 100 µM		> 100 µM	> 100 µM		> 100 µM	> 100 µM	> 100 µM		> 100 µM			> 100 µM						
COc1ccc2c(c1)-c1c(c3cc(OC)ccc3n(CCN(C)C)c1=O)C2=O	4.73 µM		6.77 µM	8.77 µM		7.18 µM	18.8 µM	7.07 µM	1.36 µM	6.48 µM	0.843 µM	1.54 µM	8.07 µM	1.77 µM	0.443 µM	0.352 µM	1.73 µM	0.812 µM	
COC(=O)CC1=C(C)/C(=C/c2[nH]c(-c3ccc[nH]3)cc2OC)N=C1C	1.36 µM		1.81 µM	4.19 µM		14.2 µM	2.34 µM	1.29 µM	1.02 µM	5.39 µM	0.204 µM	0.0681 µM	0.994 µM	0.231 µM	0.175 µM	0.247 µM	0.581 µM	1.35 µM	
C=C(C)C(=O)Nc1ccc(-c2c(-c3ccc(Oc4nccc(C)n4)c(F)c3)c3c(N)ncnc3n2C)cc1	18.4 µM		25 µM	69.2 µM		> 100 µM	8.23 µM	20.2 µM	1.72 µM	9.88 µM	4.77 µM	3.57 µM	22.2 µM	1.92 µM	6.21 µM	3.81 µM	14.7 µM	10.7 µM	
NS(=O)(=O)c1ccc(N=Nc2c[nH]c(=O)c(O)c2)cc1	82.6 µM		46.3 µM	> 100 µM		> 100 µM	> 100 µM	> 100 µM		> 100 µM			> 100 µM						
CCN1C(=O)N(CC)C2C1N=C(SC)N2/N=C/C=C/c1ccccc1OC (stereo unspecified)	> 54.2 µM		> 33.1 µM	> 59.5 µM		> 39 µM	> 58.3 µM	> 49.3 µM	0.285 µM	1.9 µM	0.375 µM	0.348 µM	10.8 µM	0.572 µM	0.411 µM	0.724 µM	0.743 µM	0.492 µM	
CC(=O)[CH-]C(=O)c1ccccc1.CC(=O)[CH-]C(=O)c1ccccc1.CC(=O)[CH-]C(=O)c1ccccc1.[Ga+3]	48.9 µM	24.8 µM	25.8 µM	38.2 µM		> 100 µM	80 µM	> 100 µM	24.7 µM	45.6 µM	20.4 µM			30.8 µM	12.7 µM	30.3 µM	20.1 µM	39.1 µM	12 µM
N#Cc1c(N)nc(N2CCOCC2)c(C#N)c1-c1c(Cl)cccc1Cl	6.37 µM		18.5 µM	21 µM		25.6 µM	12.2 µM	44.5 µM	3.75 µM	23.1 µM	2.4 µM	3.57 µM	15.4 µM	2.24 µM	3.89 µM	13.4 µM	4.09 µM	6.09 µM	
CN1CCN(c2ccc(NC3=CC(=O)c4ncncc4C3=O)cc2)CC1			1.94 µM	3.16 µM		2.93 µM	2.68 µM	0.52 µM	1.42 µM	2.8 µM	0.313 µM	0.25 µM	0.766 µM	1.34 µM	0.722 µM	0.228 µM	1.63 µM	1.52 µM	
COc1ccc2c(c1)/C(=N/OC(C)=O)c1c-2c(OC)nc2ccccc12	> 100 µM		> 100 µM	> 100 µM		> 100 µM	> 100 µM	> 100 µM	> 100 µM	> 100 µM	> 100 µM	35 µM	> 100 µM	> 100 µM	> 100 µM	86.4 µM	48.1 µM	> 100 µM	

Structure (SMILES)	TGI (OVCAR-3 ovarian)	TGI (LXFL 529 NSCLC)	TGI (U251 CNS)	TGI (SK-OV-3 ovarian)	TGI (DMS 273 small cell lung)	TGI (SNB-19 CNS)	TGI (CAKI-1 renal)	TGI (ACHN renal)	GI50 (A498 renal)	TGI (A498 renal)	GI50 (OVCAR-3 ovarian)	GI50 (MDA-MB-231 breast)	TGI (MDA-MB-231 breast)	GI50 (CAKI-1 renal)	GI50 (U251 CNS)	GI50 (ACHN renal)	GI50 (SK-OV-3 ovarian)	GI50 (SNB-19 CNS)	GI50 (LXFL 529 NSCLC)
CCC(=O)Nc1nnc(Cc2ccc(OC)c(OC)c2)s1	> 100 µM		> 100 µM	> 100 µM		> 100 µM	> 100 µM	> 100 µM	> 100 µM	> 100 µM	> 100 µM	> 100 µM	> 100 µM	> 100 µM	> 100 µM	> 100 µM	> 100 µM	> 100 µM	
Oc1[nH]c2ccccc2c1C=Nc1ccc(-n2cncn2)cc1	> 25 µM		> 25 µM	> 25 µM		> 25 µM	> 25 µM	> 25 µM	> 16.7 µM	> 25 µM	> 20.9 µM	> 25 µM	> 25 µM	> 22.7 µM	> 21.6 µM	18.3 µM	> 15.7 µM	> 25 µM	
COc1cc(C(=O)O[C@H](C(=O)NCCCCNC(=O)[C@@H](OC(=O)c2cc(OC)cc3c(C)cccc23)[C@]2(C)CO2)[C@]2(C)CO2)c2cccc(C)c2c1	0.73 µM		0.107 µM	6.19 µM		2.31 µM	0.0986 µM	< 0.01 µM	2.46 µM	5.16 µM	0.207 µM	1.85 µM	5.48 µM	0.0122 µM	< 0.01 µM	< 0.01 µM	0.703 µM	0.201 µM	
CN(C)N=Nc1ccc(S(N)(=O)=O)cc1	> 100 µM		> 100 µM	> 100 µM	> 100 µM	> 100 µM	> 100 µM	> 100 µM		> 100 µM									
O=C1NC(=NCCc2ccc(Br)cc2)S/C1=C\c1ccc2ncccc2c1	> 25 µM		> 25 µM	> 25 µM		> 25 µM	> 25 µM	> 25 µM	6.29 µM	> 25 µM	> 25 µM	> 25 µM	> 25 µM	> 20.3 µM	> 18.9 µM	> 25 µM	> 25 µM	> 25 µM	
COc1cc(-c2ccc[nH]2)[nH]c1/C=C1\N=C(C)C(CC(=O)OCC(C)(C)C)=C1C	1.15 µM		1.23 µM	2.02 µM		2.51 µM	1.13 µM	0.965 µM	0.163 µM	0.867 µM	0.254 µM	0.104 µM	1.53 µM	0.263 µM	0.141 µM	0.287 µM	0.442 µM	0.468 µM	
COc1ccc2nc3ccccc3c(NCCNCC(C)O)c2c1 (stereo unspecified)	9.4 µM		4.94 µM	9.12 µM		10.3 µM	11.4 µM	14.4 µM	0.0734 µM	0.73 µM	0.449 µM	0.31 µM	1.85 µM	0.434 µM	0.549 µM	0.375 µM	0.612 µM	0.391 µM	
O=C(CI)Nc1ccc(Br)cc1	3.25 µM		3.87 µM	3.99 µM		33.5 µM	3.51 µM	4.06 µM	16.3 µM	33.1 µM	1.72 µM	2.6 µM	5.51 µM	1.69 µM	1.83 µM	2 µM	1.99 µM	15.1 µM	
CC(C)(C)[Si](C)(C)OC1[C@@H](COC(=O)NC(=O)CCl)O[C@@H](n2cnc3c(N)ncnc32)[C@H]1O[Si](C)(C)C(C)(C)C (stereo partly specified)	8.32 µM		7.91 µM	5.95 µM		14.7 µM	11.2 µM	3.45 µM	6.58 µM	13.1 µM	2.66 µM	1.12 µM	2.76 µM	4.25 µM	2.84 µM	1.38 µM	2.92 µM	7.61 µM	
Cc1c(C(N)=O)sc2nc(C)n(/N=c3\scc(-c4ccccc4)n3Cc3ccccc3)c(=O)c12	8.58 µM		> 100 µM	> 100 µM		> 100 µM	> 100 µM	> 100 µM	2.53 µM	8.97 µM	2.28 µM	3.28 µM	8.41 µM	3.35 µM	3.32 µM	2.86 µM	4.51 µM	4.8 µM	
CN(CCCCCl)P(=O)(OCc1ccc([N+](=O)[O-])o1)OCC1OC(n2cc([N+](=O)[O-])c(=O)[nH]c2=O)CC1O (stereo unspecified)	> 100 µM		> 100 µM	> 100 µM		> 100 µM	> 100 µM	> 100 µM	29.6 µM	> 100 µM	43.6 µM	> 100 µM	> 100 µM	48.5 µM	> 100 µM	17.5 µM	96.4 µM	> 100 µM	
CC/C=C\C[C@H]1C/C=C2/C(=O)C(Cl)=C[C@@H]2C/C=C\CCCC(=O)O1	0.677 µM		0.694 µM	3.49 µM		3.54 µM	1.51 µM	0.799 µM	0.56 µM	1.43 µM	0.153 µM	0.733 µM	4.61 µM	0.45 µM	0.214 µM	0.3 µM	1.04 µM	0.665 µM	
NC(=O)c1ncn(C2OC(CO)C(O)C2O)c1O (stereo unspecified)	> 100 µM	> 100 µM	> 100 µM			> 100 µM	> 100 µM	> 100 µM		> 100 µM									
COc1cnccc1Nc1nc(-c2nn(Cc3c(F)cc(OCCO)cc3F)c3ccccc23)ncc1OC	8.51 µM		3.76 µM	48 µM		10.5 µM	29.5 µM	30.5 µM	12.7 µM	50.2 µM	3.05 µM	1.53 µM	4.96 µM	11.9 µM	1.59 µM	11.9 µM	19.4 µM	2.23 µM	
N=C(CC(=O)Nc1ccccn1)c1ccccc1	> 100 µM		> 100 µM	> 100 µM		> 100 µM	> 100 µM	> 100 µM		> 100 µM			> 100 µM						
C[C@]12CCC(=O)C[C@@H]1CC[C@@H]1[C@@H]2CC[C@]2(C)[C@@H](OC(=O)N(CCCl)N=O)CC[C@@H]12	15.9 µM		14 µM	13.6 µM		17.8 µM	12 µM	11.7 µM	1.82 µM	4.98 µM	3.53 µM	9.48 µM	24.4 µM	0.591 µM	0.394 µM	0.321 µM	1.41 µM	0.411 µM	
